The experiment concerns HCV subgenomic RNA replicon in Huh-7 human hepatoma cell line. Description: HCV RNA replication inhibitory activity in HCV replicon (subgenomic RNA replicon) cell line. To be noted: Huh-7 cells harboring HCV-1b subgenomic replicon, 72 hours, RT-PCR. Format: cell-based, HCV-1b Hepatitis C virus. On the procedure: To screen a compound that is capable of inhibiting HCV replication, each compound was added to Huh-7 human hepatoma cell line harboring HCV RNA replicon, followed by culture. Then, expression level of HCV RNA was quantified and its inhibitory activity was measured. HCV replicon used in this invention was derived from HCV-1b Hepatitis C virus gene that was bicistronic replicon composed of HCV IRES, neomycin resistant gene, EMCV (encephalomyocarditis virus) IRES. HCV non-structural proteins were composed of the sequences comprising NS3-NS5B and HCV 3′end. An expression vector harboring HCV replicon proceeded to in vitro transcription, and the obtained HCV replicon was transfected into the Huh-7 cells by electroporation. To select only those cells having HCV replicon, Huh-7 cells were cultured with medium containing the antibiotic G418 (500 μg/ml). The selected cells were cultured with DMEM (Dulbecco's modified Eagles media) containing 10% FBS, non-essential amino acids and 500 μg/ml of G418.
Huh-7 cells harboring HCV subgenomic RNA replicon were cultured overnight in 6 well plate (3×10^5 cells/well), at 37° C. and 5% CO2 with DMEM containing 10% FBS, non-essential amino acids and 500 μg/ml of G418. Medium of each well was replaced with DMEM containing 2% FBS, non-essential amino acids and 500 μg/ml of G418. Test compound was dissolved in DMSO, which was added to each well at different concentrations, followed by culture in a 5% CO2 incubator at 37° C. for 72 hours. Equal amount of DMSO (negative control) and Interferon-α (positive control) were added as controls. Upon completion of the culture, medium of each well was eliminated, followed by washing with 1 ml of PBS. 250 μl/well of trypsin/EDTA was added thereto and cells were separated from the plate and washed with PBS again to eliminate medium. Total RNA was isolated from the cells by using SV total RNA isolation system (Promega corporation), followed by quantification using GeneQuant pro (Amersham bioscience). EC50 against HCV replicon of each compound was investigated by RT-PCR and the result was compared with those of controls. RT-PCR was performed with the primer targeting HCV 1b NS5B region and by AccessQuick™ RT-PCR system (Promega corporation). To obtain more accurate EC50 values, quantitative real-time PCR was performed along with RT-PCR. cDNA was obtained from the isolated RNA by using Reverse transcription system (Promega corporation), followed by quantitative real-time PCR using iQ SYBR Green Supermix (Bio-rad). At the same time, one-step real time RT-PCR was performed using Taqman probe to investigate the inhibitory activity of each compound. At this time, the primer targeting HCV 5′-UTR was used and GAPDH (Glyceraldehyde-3-phosphate dehydrogenase) gene was used as a reference gene for correction. Real time RT-PCR was performed by using iCycler iQ5 system (Bio-rad). The EC50 value was calculated by iCycler iQ5 optical system software (Bio-rad) program to determine the inhibitory activity. HCV replicon inhibitory activity of saponin components of Platycodon grandiflorum, the roots extract of Platycodon grandiflorum and the composition containing the same of the present invention and sapogenin and prosapogenin is shown in Table 7 and Table 8.
Background: In antiviral work, replicon cells carry a viral genome segment that copies itself.
On to “2″-O-acetyl-deapiopolygalacin D2 [Compound 11]”, for which the “Inhibitory Activity EC50 (HCV RNA replication inhibitory activity of saponin components)” value (shortened to “Inhibitory Activity EC50”) was over 10 mg/L.
Regarding “2″-O-acetyl-polygalacin D2 [Compound 12]”, the “Inhibitory Activity EC50” value was 1 mg/L.
The figure for `C[C@@H]1O[C@@H](O[C@H]2[C@H](OC(=O)[C@]34CCC(C)(C)C[C@H]3C3=CC[C@@H]5[C@@]6(C)C[C@H](O)[C@H](O[C@@H]7O[C@H](CO[C@@H]8O[C@H](CO[C@@H]9O[C@H](CO)[C@@H](O)[C@H](O)[C@H]9O)[C@@H](O)[C@H](O)[C@H]8O)[C@@H](O)[C@H](O)[C@H]7O)C(CO)(CO)[C@@H]6CC[C@@]5(C)[C@]3(C)C[C@H]4O)OC[C@H](O)[C@@H]2O)[C@H](O)[C@H](O)[C@H]1O[C@@H]1OC[C@@H](O)[C@H](O)[C@H]1O` [Compound 1, deapioplatycoside E] is over 10 mg/L.
The figure for `C[C@@H]1O[C@@H](O[C@H]2[C@H](OC(=O)[C@]34CCC(C)(C)C[C@H]3C3=CC[C@@H]5[C@@]6(C)C[C@H](O)[C@H](O[C@@H]7O[C@H](CO[C@@H]8O[C@H](CO[C@@H]9O[C@H](CO)[C@@H](O)[C@H](O)[C@H]9O)[C@@H](O)[C@H](O)[C@H]8O)[C@@H](O)[C@H](O)[C@H]7O)C(CO)(CO)[C@@H]6CC[C@@]5(C)[C@]3(C)C[C@H]4O)OC[C@H](O)[C@@H]2O)[C@H](O)[C@H](O)[C@H]1O[C@@H]1OC[C@@H](O)[C@H](O[C@@H]2OC[C@](O)(CO)[C@H]2O)[C@H]1O` [Compound 2, platycoside E] is 0.7 mg/L.
The figure for `CC1OC(OC2C(OC(=O)C34CCC(C)(C)CC3C3=CCC5C6(C)CC(O)C(OC7OC(COC8OC(CO)C(O)C(O)C8O)C(O)C(O)C7O)C(CO)(CO)C6CCC5(C)C3(C)CC4O)OCC(O)C2O)C(O)C(O)C1OC1OCC(O)C(OC2OCC(O)(CO)C2O)C1O` (stereo not shown) [Compound 3, platycodin D3] is 0.2 mg/L.
Take `C[C@@H]1O[C@@H](O[C@H]2[C@H](OC(=O)[C@]34CCC(C)(C)C[C@H]3C3=CC[C@@H]5[C@@]6(C)C[C@H](O)[C@H](O[C@@H]7O[C@H](CO)[C@@H](O)[C@H](O[C@@H]8O[C@H](CO)[C@@H](O)[C@H](O)[C@H]8O)[C@H]7O)[C@@](C)(CO)[C@@H]6CC[C@@]5(C)[C@]3(C)C[C@H]4O)OC[C@H](O)[C@@H]2O)[C@H](O)[C@H](O)[C@H]1O[C@@H]1OC[C@@H](O)[C@H](O[C@@H]2OC[C@](O)(CO)[C@H]2O)[C@H]1O` [Compound 4, polygalacin D2]: the “Inhibitory Activity EC50” value is over 10 mg/L.
As for `C[C@@H]1O[C@@H](O[C@H]2[C@H](OC(=O)[C@]34CCC(C)(C)C[C@H]3C3=CC[C@@H]5[C@@]6(C)C[C@H](O)[C@H](O[C@@H]7O[C@H](CO)[C@@H](O)[C@H](O)[C@H]7O)[C@@](C)(CO)[C@@H]6CC[C@@]5(C)[C@]3(C)C[C@H]4O)OC[C@H](O)[C@@H]2O)[C@H](O)[C@H](O)[C@H]1O[C@@H]1OC[C@@H](O)[C@H](O[C@@H]2OC[C@](O)(CO)[C@H]2O)[C@H]1O` [Compound 5, polygalacin D], the “Inhibitory Activity EC50” value was 0.8 mg/L.
For `C[C@@H]1O[C@@H](O[C@H]2[C@H](OC(=O)[C@]34CCC(C)(C)C[C@H]3C3=CC[C@@H]5[C@@]6(C)C[C@H](O)[C@H](O[C@@H]7O[C@H](CO)[C@@H](O)[C@H](O)[C@H]7O)[C@](CO)(C(=O)O)[C@@H]6CC[C@@]5(C)[C@]3(C)C[C@H]4O)OC[C@H](O)[C@@H]2O)[C@H](O)[C@H](O)[C@H]1O[C@@H]1OC[C@@H](O)[C@H](O[C@@H]2OC[C@](O)(CO)[C@H]2O)[C@H]1O` [Compound 6, platyconic acid A], the “Inhibitory Activity EC50” value was 0.2 mg/L.
As for `C[C@@H]1O[C@@H](O[C@H]2[C@H](OC(=O)[C@]34CCC(C)(C)C[C@H]3C3=CC[C@@H]5[C@@]6(C)C[C@H](O)[C@H](O[C@@H]7O[C@H](CO)[C@@H](O)[C@H](O[C@@H]8O[C@H](CO)[C@@H](O)[C@H](O)[C@H]8O)[C@H]7O)C(CO)(CO)[C@@H]6CC[C@@]5(C)[C@]3(C)C[C@H]4O)OC[C@H](O)[C@@H]2O)[C@H](O)[C@H](O)[C@H]1O[C@@H]1OC[C@@H](O)[C@H](O)[C@H]1O` [Compound 7, deapioplatycodin D2], the figure is 0.2 mg/L; as for `C[C@@H]1O[C@@H](O[C@H]2[C@H](OC(=O)[C@]34CCC(C)(C)C[C@H]3C3=CC[C@@H]5[C@@]6(C)C[C@H](O)[C@H](O[C@@H]7O[C@H](CO)[C@@H](O)[C@H](O[C@@H]8O[C@H](CO)[C@@H](O)[C@H](O)[C@H]8O)[C@H]7O)C(CO)(CO)[C@@H]6CC[C@@]5(C)[C@]3(C)C[C@H]4O)OC[C@H](O)[C@@H]2O)[C@H](O)[C@H](O)[C@H]1O[C@@H]1OC[C@@H](O)[C@H](O[C@@H]2OC[C@](O)(CO)[C@H]2O)[C@H]1O` [Compound 8, platycodin D2], 0.1 mg/L; as for `C[C@@H]1O[C@@H](O[C@H]2[C@H](OC(=O)[C@]34CCC(C)(C)C[C@H]3C3=CC[C@@H]5[C@@]6(C)C[C@H](O)[C@H](O[C@@H]7O[C@H](CO)[C@@H](O)[C@H](O)[C@H]7O)C(CO)(CO)[C@@H]6CC[C@@]5(C)[C@]3(C)C[C@H]4O)OC[C@H](O)[C@@H]2O)[C@H](O)[C@H](O)[C@H]1O[C@@H]1OC[C@@H](O)[C@H](O)[C@H]1O` [Compound 9, deapioplatycodin D], 0.2 mg/L.
As for `C[C@@H]1O[C@@H](O[C@H]2[C@H](OC(=O)[C@]34CCC(C)(C)C[C@H]3C3=CC[C@@H]5[C@@]6(C)C[C@H](O)[C@H](O[C@@H]7O[C@H](CO)[C@@H](O)[C@H](O)[C@H]7O)C(CO)(CO)[C@@H]6CC[C@@]5(C)[C@]3(C)C[C@H]4O)OC[C@H](O)[C@@H]2O)[C@H](O)[C@H](O)[C@H]1O[C@@H]1OC[C@@H](O)[C@H](O[C@@H]2OC[C@](O)(CO)[C@H]2O)[C@H]1O` [Compound 10, platycodin D], the figure is 0.1 mg/L.
Consider `CC1(C)CC[C@]2(C(=O)O)[C@H](O)C[C@]3(C)C(=CC[C@@H]4[C@@]5(C)C[C@H](O)[C@H](O)C(CO)(CO)[C@@H]5CC[C@]43C)[C@@H]2C1` [Compound 14, platycodigenin], for which the “Inhibitory Activity EC50” value is over 10 mg/L.
As for `CC1(C)CCC2(C(=O)O)C(O)CC3(C)C(=CCC4C5(C)CC(O)C(O)C(C)(CO)C5CCC43C)C2C1` (stereo not shown) [Compound 15, polygalacic acid], the figure is 2 mg/L; as for `COC(=O)C12CCC(C)(C)CC1C1=CCC3C4(C)CC(O)C(OC5OC(CO)C(O)C(O)C5O)C(CO)(CO)C4CCC3(C)C1(C)CC2O` (stereo not shown) [Compound 18, platycodigenin 3-O-glucopyranoside 28-methyl ester], over 10 mg/L; as for `COC(=O)C12CCC(C)(C)CC1C1=CCC3C4(C)CC(O)C(OC5OC(CO)C(O)C(OC6OC(CO)C(O)C(O)C6O)C5O)C(CO)(CO)C4CCC3(C)C1(C)CC2O` (stereo not shown) [Compound 19, platycodigenin 3-O-laminaribioside 28-methyl ester], over 10 mg/L.
The figure for “platycogenic acid A lactone 3-O-glucopyranoside [Compound 17]” is 2 mg/L; for “platycogenic acid A lactone [Compound 16]” it is 0.4 mg/L; for “platyconic acid A methyl ester [Compound 13]” it is 5 mg/L.

(Values after patent US20110274656A1, “PHARMACEUTICAL COMPOSITION FOR PREVENTING OR TREATING HEPATITIS C, COMPRISING THE ROOTS EXTRACT OF PLATYCODON GRANDIFLORUM OR PLATYCODON GRANDIFLORUM SAPONIN COMPONENTS” (B&C Biopharm Co., Ltd., priority 2009, published 2011).)
